According to US5691373A, “Nonpeptide endothelin antagonists I” (Warner-Lambert Company, priority 1995, dated 1997):
Where two headings read alike, the source gives them in different places.

Experiments:
[1] = target: T1, ETB (Rattus norvegicus, UniProt P21451)
T1 sequence (P21451 27-442): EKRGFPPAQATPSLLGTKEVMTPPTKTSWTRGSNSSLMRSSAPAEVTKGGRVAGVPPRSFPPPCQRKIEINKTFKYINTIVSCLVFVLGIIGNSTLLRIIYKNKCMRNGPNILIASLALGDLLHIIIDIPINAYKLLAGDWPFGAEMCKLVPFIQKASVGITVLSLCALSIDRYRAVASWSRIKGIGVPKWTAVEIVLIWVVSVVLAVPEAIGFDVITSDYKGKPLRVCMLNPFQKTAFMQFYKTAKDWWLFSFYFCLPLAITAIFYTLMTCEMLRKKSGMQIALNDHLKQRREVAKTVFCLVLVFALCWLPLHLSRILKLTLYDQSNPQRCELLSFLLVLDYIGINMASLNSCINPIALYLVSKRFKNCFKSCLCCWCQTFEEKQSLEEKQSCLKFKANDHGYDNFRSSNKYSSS
Description: The tissue is made up of 20 mM tris(hydroxymethyl)aminomethane hydrochloride (Trizma) buffer, 2 mM ethylenediaminetetra acetate, 100 μM phenylmethylsulfonyl fluoride.
First, thaw one aliquot of frozen rat cerebellar membranes (2 mg protein in 0.5 mL). Next, add 0.5 mL membrane aliquot to 4.5 mL cold tissue buffer, polytron at 7,500 revolutions per minute for 10 seconds. Finally, dilute tissue suspension 1/100 (0.1 mL suspension+9.9 mL tissue buffer), polytron again, and place ice.
Mix in 150 μL of tissue to each tube, vortex briefly, then tap to force all liquids to bottom (total assay volume=250 μL). Then place the tubes in a 37° C. water bath for 2 hours.
Add 2.5 mL cold wash buffer (50 mM Trizma buffer) to each tube, filter, and then wash tube with additional 2.5 mL wash buffer and add to filter. Finally, wash filters with an additional 2.5 mL of cold wash buffer.
Count filters for radioactivity in gamma counter.

[2] = target: T2, ETA (Oryctolagus cuniculus, UniProt A5A8K3)
T2 sequence (A5A8K3 21-427): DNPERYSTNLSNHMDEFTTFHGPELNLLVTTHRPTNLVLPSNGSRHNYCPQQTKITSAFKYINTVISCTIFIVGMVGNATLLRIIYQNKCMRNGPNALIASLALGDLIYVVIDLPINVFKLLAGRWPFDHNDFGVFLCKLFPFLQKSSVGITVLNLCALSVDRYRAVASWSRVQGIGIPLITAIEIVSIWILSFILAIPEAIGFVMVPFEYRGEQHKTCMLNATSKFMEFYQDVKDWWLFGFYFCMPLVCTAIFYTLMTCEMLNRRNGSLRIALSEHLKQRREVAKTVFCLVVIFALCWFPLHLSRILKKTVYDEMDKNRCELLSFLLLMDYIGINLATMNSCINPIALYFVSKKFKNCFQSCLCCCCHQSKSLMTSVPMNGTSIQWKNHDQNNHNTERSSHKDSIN
Description: The cells used were rabbit renal artery vascular smooth muscle cells grown in a 48-well dish (1 cm^2) (confluent cells).
The growth media was Dulbecco's Modified Eagles/Ham's F12 which contained 10% fetal bovine serum and antibiotics (penicillin/streptomycin/fungizone).
Second, remove the assay buffers, place the dish on ice, and add 150 μL of cold assay buffer described above to each well. […] Next, place dish in a 37° C., water bath for about 2 hours and gently agitate the dish every 15 minutes. Discard the radioactive incubation mixture in the sink and wash wells 3 times with 1 mL of cold phosphate buffered saline.

[3] = ERBA-A IC50, [125I]-ET-1, rabbit renal artery vascular smooth muscle cells

IC50 [1] | IC50 [2, 3] | IC50 ([1]; read-out: ERBA-B IC50, [125I]-ET-1, rat cerebellar membranes) | IC50 ([2]; read-out: ERBA-A IC50, [125I]-ET-1, rabbit renal artery vascular smooth muscle cells) | SMILES
9.8 µM | 1700 nM |  |  | COc1ccc(CC2=C(c3ccc(OC)c(OC)c3)C(=O)OC2(O)c2ccc(Cl)cc2)cc1OC (racemic) [Example 68, 2(5H)-Furanone, 5-(4-chlorophenyl)-3-(3,4-dimethoxyphenyl)-4-[(3,4-dimethoxyphenyl)methyl]-5-hydroxy-, (±)-]
8.4 µM | 9100 nM |  |  | O=C1OC(O)(c2ccc(Cl)cc2)C(Cc2ccc3c(c2)OCO3)=C1c1ccc(Cl)c(Cl)c1 (racemic) [Example 69, 2(5H)-Furanone, 4-(1,3-benzodioxol-5-ylmethyl)-5-(4-chlorophenyl)-3-(3,4-dichlorophenyl)-5-hydroxy-, (±)-]
15 µM | 9300 nM |  |  | COc1ccc(C2=C(Cc3ccc(C(C)C)cc3)C(O)(c3ccc(Cl)cc3)OC2=O)cc1OC (racemic) [Example 70, 2(5H)-Furanone, 5-(4-chlorophenyl)-3-(3,4-dimethoxyphenyl)-5-hydroxy-4-[[4-(1-methylethyl)phenyl]methyl]-, (±)-]
13 µM | 21000 nM |  |  | COc1ccc(C2=C(Cc3ccc(Cl)c(Cl)c3)C(O)(c3ccc(Cl)cc3)OC2=O)cc1OC (racemic) [Example 73, 2(5H)-Furanone, 5-(4-chlorophenyl)-4-[(3,4-dichlorophenyl)methyl]-3-(3,4-dimethoxyphenyl)-5-hydroxy-, (±)-]
15.6 µM | 1700 nM |  |  | O=C1OC(O)(c2ccccc2)C(Cc2cccs2)=C1c1ccc2c(c1)OCO2 (stereo not shown) [Example 25, 2(5H)-Furanone, 3-(1,3-benzodioxol-5-yl)-5-hydroxy-5-phenyl-4-(2-thienylmethyl)-]
15.5 µM | 790 nM |  |  | O=C1OC(O)(c2ccccc2)C(Cc2ccsc2)=C1c1ccc2c(c1)OCO2 (stereo not shown) [Example 26, 2(5H)-Furanone, 3-(1,3-benzodioxol-5-yl)-5-hydroxy-5-phenyl-4-(3-thienylmethyl)-]
13 µM | 7900 nM |  |  | O=C1OC(O)(c2ccc(Cl)cc2)C(Cc2ccccc2)=C1c1ccc2c(c1)OCCO2 (stereo not shown) [Example 30, 2(5H)-Furanone, 5-(4-chlorophenyl)-3-(2,3-dihydro-1,4-benzodioxin-6-yl)-5-hydroxy-4-(phenylmethyl)-]
9.1 µM | 9900 nM |  |  | O=C1OC(O)(c2ccc(Cl)cc2)C(Cc2ccc(Cl)cc2)=C1c1ccc2c(c1)OCO2 (stereo not shown) [Example 31, 2(5H)-Furanone, 3-(1,3-benzodioxol-5-yl)-5-(4-chlorophenyl)-4-[(4-chlorophenyl)methyl]-5-hydroxy-]
6.3 µM | 1000 nM |  |  | COc1ccc(CC2=C(c3ccc4c(c3)OCO4)C(=O)OC2(O)c2ccc(Cl)cc2)cc1 (stereo not shown) [Example 32, 2(5H)-Furanone, 3-(1,3-benzodioxol-5-yl)-5-(4-chlorophenyl)-5-hydroxy-4-[(4-methoxyphenyl)methyl]-]
5.7 µM | 3500 nM |  |  | Cc1ccc(CC2=C(c3ccc4c(c3)OCO4)C(=O)OC2(O)c2ccc(Cl)cc2)cc1 (stereo not shown) [Example 33, 2(5H)-Furanone, 3-(1,3-benzodioxol-5-yl)-5-(4-chlorophenyl)-5-hydroxy-4-[(4-methylphenyl)methyl]-]
7 µM | 1300 nM |  |  | Cc1cccc(CC2=C(c3ccc4c(c3)OCO4)C(=O)OC2(O)c2ccc(Cl)cc2)c1 (stereo not shown) [Example 34, 2(5H)-Furanone, 3-(1,3-benzodioxol-5-yl)-5-(4-chlorophenyl)-5-hydroxy-4-[(3-methylphenyl)methyl]-]
3.3 µM | 1100 nM |  |  | O=C1OC(O)(c2ccc(Cl)cc2)C(Cc2cccs2)=C1c1ccc2c(c1)OCO2 (stereo not shown) [Example 35, 2(5H)-Furanone, 3-(1,3-benzodioxol-5-yl)-5-(4-chlorophenyl)-5-hydroxy-4-(2-thienylmethyl)-]
7.8 µM | 3900 nM |  |  | COc1cccc(CC2=C(c3ccc4c(c3)OCO4)C(=O)OC2(O)c2ccc(Cl)cc2)c1 (stereo not shown) [Example 47, 2(5H)-Furanone, 3-(1,3-benzodioxol-5-yl)-5-(4-chlorophenyl)-5-hydroxy-4-[(3-methoxyphenyl)methyl]-]
6.2 µM | 1200 nM |  |  | O=C1OC(O)(c2ccc(Cl)cc2)C(Cc2ccsc2)=C1c1ccc2c(c1)OCO2 (stereo not shown) [Example 48, 2(5H)-Furanone, 3-(1,3-benzodioxol-5-yl)-5-(4-chlorophenyl)-5-hydroxy-4-(3-thienylmethyl)-]
 |  | 12 µM | 2500 nM | O=C1OC(O)(c2ccc(Cl)cc2)C(Cc2cccc(Cl)c2)=C1c1ccc2c(c1)OCO2 (stereo not shown) [Example 74, 2(5H)-Furanone, 3-(1,3-benzodioxol-5)-5-(4-chlorophenyl)-4-[(3-chlorophenyl)methyl]-5-hydroxy]
0.89 µM | 240 nM |  |  | COc1ccc(C2(O)OC(=O)C(c3ccc4c(c3)OCO4)=C2Cc2ccc(Cl)c(Cl)c2)cc1 (stereo not shown) [Example 78, 3-Benzo[1,3]dioxol-5-yl-4-(3,4-dichlorobenzyl)-5-hydroxy-5-(4-methoxyphenyl)-5H-furan-2-one]
0.52 µM | 84 nM |  |  | COc1ccc(C2(O)OC(=O)C(c3ccc4c(c3)OCO4)=C2Cc2ccc(C(C)(C)C)cc2)cc1 (stereo not shown) [Example 79, 3-Benzo[1,3]dioxol-5-yl-4-(4-tert-butylbenzyl)-5-hydroxy-5-(4-methoxyphenyl)-5H-furan-2-one]
0.5 µM | 71 nM |  |  | COc1ccc(C2(O)OC(=O)C(c3ccc4c(c3)OCO4)=C2Cc2ccc(Br)cc2)cc1 (stereo not shown) [Example 83, 3-Benzo[1,3]dioxol-5-yl-4-(4-bromobenzyl)-5-hydroxy-5-(4-methoxyphenyl)-5H-furan-2-one]
13 µM | 540 nM |  |  | CC(C)c1ccc(CC2=C(c3ccc(Cl)c(Cl)c3)C(=O)OC2(O)c2ccc(Cl)cc2)cc1 (stereo not shown) [Example 118, 5-(4-Chlorophenyl)-3-(3,4-dichlorophenyl)-5-hydroxy-4-(4-isopropylbenzyl)-5 H-furan-2-one]
4.1 µM | 5800 nM |  |  | CN(C)c1ccc(CC2=C(c3ccc(Cl)c(Cl)c3)C(=O)OC2(O)c2ccc(Cl)cc2)cc1 (stereo not shown) [Example 119, 5-(4-Chlorophenyl)-3-(3,4-dichlorophenyl)-4-(4-dimethylaminobenzyl)-5-hydroxy-5H-furan-2-one]
0.2 µM | 29 nM |  |  | COc1ccc(C2(O)OC(=O)C(c3cc(OC)cc(OC)c3)=C2Cc2ccccc2)cc1 (stereo not shown) [Example 125, 4-Benzyl-3-(3,5-dimethoxyphenyl)-5-hydroxy-5-(4-methoxyphenyl)-5H-furan-2-one]
1.2 µM | 24 nM |  |  | COc1ccc(C2(O)OC(=O)C(c3cc(OC)cc(OC)c3)=C2Cc2cccc(C=O)c2)cc1 (stereo not shown) [Example 134, 3-[4-(3,5-Dimethoxyphenyl)-2-hydroxy-2-(4-methoxyphenyl)-5-oxo-2,5-dihydrof uran-3-ylmethyl]benzaldehyde]
2 µM | 360 nM |  |  | COc1ccc(C2(O)OC(=O)C(c3cccc(OC)c3)=C2Cc2ccccc2)cc1 (stereo not shown) [Example 153, 4-Benzyl-5-hydroxy-5-(4-methoxyphenyl)-3-(3-methoxyphenyl)-5H-furan-2-one]
2.1 µM | 100 nM |  |  | CCCOc1cccc(CC2=C(c3cccc(OC)c3)C(=O)OC2(O)c2ccc(OC)cc2)c1 (stereo not shown) [Example 154, 5-Hydroxy-5-(4-methoxyphenyl)-3-(3-methoxyphenyl)-4-(3-propoxybenzyl)-5H-fu ran-2-one]
21 µM | 2300 nM |  |  | O=C1OC(O)(c2c(F)cccc2F)C(Cc2ccccc2)=C1c1ccc2c(c1)OCO2 (stereo not shown) [Example 158, 3-Benzo[1,3]dioxol-5-yl-4-benzyl-5-(2,6-difluorophenyl)-5-hydroxy-5H-furan-2-one]
0.9 µM | 1300 nM |  |  | COc1ccc(C2(O)OC(=O)C(c3cn(C)c4ccccc34)=C2Cc2ccccc2)cc1 (stereo not shown) [Example 170]
8 µM | 290 nM |  |  | Cc1ccccc1C1(O)OC(=O)C(c2ccc3c(c2)OCO3)=C1Cc1ccccc1 (stereo not shown) [Example 216, 3-Benzo[1,3]dioxol-5-yl-4-benzyl-5-hydroxy-5-o-tolyl-5H-furan-2-one]
1.5 µM | 300 nM |  |  | COc1cccc(C2(O)OC(=O)C(c3ccc4c(c3)OCO4)=C2Cc2ccccc2)c1 (stereo not shown) [Example 220, 3-Benzo[1,3]dioixol-5-yl-4-benzyl-5-hydroxy-5-(3-methoxyphenyl)-5H-furan-2-one]
0.11 µM | 110 nM |  |  | C=CCOc1cc(OC)ccc1C1(O)OC(=O)C(c2ccc3c(c2)OCO3)=C1Cc1ccccc1 (stereo not shown) [Example 329, 3-Benzo[1,3]dioxol-5-yl-5-hydroxy-5-(2-allyloxy-4-methoxy-phenyl)-4-benzyl-5H-furan-2one]
